Patent US20200361895A1, “NOVEL SULFONAMIDE CARBOXAMIDE COMPOUNDS” (Inflazome Limited, priority 2017, published 2020)
pIC50: −log10 of the molar value. Where a name gives a salt, the structure may show the parent alone.

Assays:
[1] = molecular target: T1, NLRP3 (Homo sapiens, UniProt Q96P20); assay: Human whole blood IL1β release assay (LPS + nigericin, AlphaLisa IL-1β; HWB IC50); type: cell-based; design: Human whole blood in Li-heparin tubes was obtained from healthy donors from a volunteer donor panel; from tissue; host or cells: human whole blood from healthy donors; conditions: IL-1β release
T1 sequence (Q96P20 whole entry): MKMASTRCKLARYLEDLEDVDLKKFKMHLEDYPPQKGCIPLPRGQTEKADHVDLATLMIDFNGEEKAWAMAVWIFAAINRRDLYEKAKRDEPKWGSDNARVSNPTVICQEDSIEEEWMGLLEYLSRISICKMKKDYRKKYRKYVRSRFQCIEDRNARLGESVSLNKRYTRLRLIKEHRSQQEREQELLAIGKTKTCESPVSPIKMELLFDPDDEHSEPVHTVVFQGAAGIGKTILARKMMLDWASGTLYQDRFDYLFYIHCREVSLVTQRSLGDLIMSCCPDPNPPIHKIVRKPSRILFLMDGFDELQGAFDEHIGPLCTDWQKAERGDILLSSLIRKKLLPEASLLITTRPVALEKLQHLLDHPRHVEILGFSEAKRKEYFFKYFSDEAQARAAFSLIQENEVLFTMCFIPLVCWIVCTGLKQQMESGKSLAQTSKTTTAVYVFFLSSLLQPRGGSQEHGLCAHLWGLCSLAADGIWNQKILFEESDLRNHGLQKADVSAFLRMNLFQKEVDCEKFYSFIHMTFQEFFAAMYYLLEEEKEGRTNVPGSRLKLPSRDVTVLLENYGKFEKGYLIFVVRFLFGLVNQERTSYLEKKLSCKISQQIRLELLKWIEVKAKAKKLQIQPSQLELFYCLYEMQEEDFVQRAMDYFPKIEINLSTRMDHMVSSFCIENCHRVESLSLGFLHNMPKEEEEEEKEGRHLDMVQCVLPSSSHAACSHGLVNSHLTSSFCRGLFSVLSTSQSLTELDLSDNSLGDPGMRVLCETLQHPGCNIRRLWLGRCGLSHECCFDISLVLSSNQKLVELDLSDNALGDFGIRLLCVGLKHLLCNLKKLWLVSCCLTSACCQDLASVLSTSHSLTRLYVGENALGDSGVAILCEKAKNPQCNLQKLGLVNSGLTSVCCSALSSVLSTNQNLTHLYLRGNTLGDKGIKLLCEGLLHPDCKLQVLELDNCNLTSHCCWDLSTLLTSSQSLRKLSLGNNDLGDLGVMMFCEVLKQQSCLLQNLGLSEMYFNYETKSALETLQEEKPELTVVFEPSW
In short: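 Donor Li-heparin whole blood primed with 1 μg/ml LPS, given compound (8-point half-log series, 10 μM top; DMSO 0.1% final) for 3 h at 37 °C, then nigericin 10 μM final for 1 h. Supernatant IL-1β measured by AlphaLisa; IC50 from 4-parameter variable-slope fit.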

[2] = PK protocol, intravenous administration; type: in vivo, male Sprague Dawley rats; conditions: male, Sprague Dawley, plasma, dose 1 mg/kg, rat; for Vd: read-out: Vdss
Procedure: (§1) Pharmacokinetic parameters were determined in male Sprague Dawley rats (Charles River, UK, 250-350 g; or Vital River Laboratory Animal Technology Co Ltd, Beijing, China, 7-9 weeks old). Animals were individually housed during the study and maintained under a 12 h light/dark cycle. Animals had free access to food and water.
(§2) For intravenous administration, compounds were formulated as a solution in water or DMSO:PBS [10:90] in 2 mL/kg dosing volume and administered via tail vein. For oral administration, compounds were formulated as a solution in DMSO:water [10:90] in 5 mL/kg dosing volume and administered orally.
(§3) Serial blood samples (about 120-300 μL) were taken from each animal at each of 8 time-points post dose (0.083, 0.25, 0.5, 1, 2, 4, 8 and 24 h) or at each of 12 time-points post dose (0.03, 0.1, 0.17, 0.25, 0.5, 1, 2, 4, 6, 8, 12 and 24 h) or pre-dose and at each of 9 time-points post dose (0.25, 0.5, 1, 2, 4, 6, 8, 12 and 24 h). Samples were held on ice for no longer than 30 minutes before centrifugation (10,000 rpm (8,385 g) for 3 minutes; or 5,696 rpm (3,000 g) for 15 minutes) for plasma generation. Plasma was frozen on dry ice prior to bioanalysis. PK parameters were generated from LC-MS/MS data using Dotmatics or Phoenix WinNonlin 6.3 software.

[3] = PK protocol, oral administration; type: in vivo; conditions: rat, male Sprague Dawley rats, 3 mg/kg, solution in DMSO:water [10:90], plasma
Procedure: as §1, §2, §3

[4] = molecular target: T1, NLRP3; assay: THP-1 cells pyroptosis assay (LPS + nigericin, resazurin readout; THP IC50); type: cell-based; design: Seed THP-1 cells (25,000 cells/well) containing 1.0 μg/ml LPS in 40 μl of RPMI medium; host or cells: THP-1 cells
In short: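 Human THP-1 cells, 25,000/well in serum-free RPMI with 1 μg/ml LPS, treated 3 hrs at 37° C with compound (8-point half-log, 10 μM top, 0.1% DMSO), then 5 μM nigericin 1 hr. Viability by 100 μM resazurin fluorescence after 1-2 hrs; IC50 by 4-parameter fit.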

SMILES | pIC50 [1] | AUC [2] [ng·h/mL] | clearance [2] [mL/min/kg] | half-life [2] [h] | Vd [2] [L/kg] | AUC [3] [ng·h/mL] | CL/F [3] [mL/min/kg] | Cmax [3] [ng/mL] | Tmax [3] [h] | half-life [3] [h] | bioavailability [3] [%] | pIC50 [4]
COc1cc(-c2ccc3c(c2NC(=O)NS(=O)(=O)c2ccn(C4CC4)n2)CCC3)ccn1 [Example 221, 1-Cyclopropyl-N-((5-(2-methoxypyridin-4-yl)-2,3-dihydro-1H-inden-4-yl)carbamoyl)-1H-pyrazole-3-sulfonamide, sodium salt] | ≥ 6.30 | 65400 | 0.39 | 15 | 0.36 | 136000 | 0.48 | 7220 | 0.75 | 12 | 83 | ≥ 6.30
COc1cc(-c2ccc3c(c2NC(=O)NS(=O)(=O)c2ccn(C(C)(C)CN(C)C)n2)CCC3)ccn1 [Example 69, 1-(1-(Dimethylamino)-2-methylpropan-2-yl)-N-((5-(2-methoxypyridin-4-yl)-2,3-dihydro-1H-inden-4-yl)carbamoyl)-1H-pyrazole-3-sulfonamide] | ≥ 6.30 | 896 | 19 | 5.8 | 0.78 | 504 | 112 | 113 | 0.5 | 5 | 19 | ≥ 6.30
CC(C)c1cc(F)cc(-c2cnn(C)c2)c1NC(=O)NS(=O)(=O)c1cc(C(=O)N(C)C)n(C)n1 [Example 34, 3-(N-((4-Fluoro-2-iso-propyl-6-(1-methyl-1H-pyrazol-4-yl)phenyl)carbamoyl)sulfamoyl)-N,N,1-trimethyl-1H-pyrazole-5-carboxamide, sodium salt] | ≥ 6.30 | 661 | 25.2 | 12.1 | 3.03 | – | – | – | – | – | – | ≥ 6.00
CC(C)c1cc(F)cc(-c2ccnc(C#N)c2)c1NC(=O)NS(=O)(=O)c1ccn(C(C)C)n1 [Example 28, N-((2-(2-Cyanopyridin-4-yl)-4-fluoro-6-iso-propylphenyl)carbamoyl)-1-iso-propyl-1H-pyrazole-3-sulfonamide] | ≥ 6.30 | 386 | 43.3 | 1.2 | 1.07 | – | – | – | – | – | – | ≥ 6.30
CC(C)c1cc(F)cc(-c2ccnc(C#N)c2)c1NC(=O)NS(=O)(=O)c1cn(C(C)C)cn1 [Example 54, N-((2-(2-Cyanopyridin-4-yl)-4-fluoro-6-isopropylphenyl)carbamoyl)-1-isopropyl-1H-imidazole-4-sulfonamide] | ≥ 6.30 | 200 | 85.4 | 1.6 | 2.5 | – | – | – | – | – | – | ≥ 6.30
